Consider 11 compounds from patent publication US10053431B2, “Tetrahydro-benzodiazepinones” (priority 2013, dated 2018).

Structures can show the parent of a compound that is named as a salt.

In the experiment the target is BIR2 domain of XIAP (Homo sapiens (Human), UniProt P98170, C202A/C213G). Nature of the experiment: TR-FRET assay for BIR2 (inhibition of binding of XIAP BIR2 domain to SMAC-derived Peptide A). The conditions noted are these: 6x His-tagged BIR2 domain (aa 124-240 of XIAP) 10 nM, Peptide A 20 nM, TR-FRET; read-out: IC50 BIR2. (In general: TR-FRET usually uses a lanthanide donor and a delayed reading to cut background.)
Chain of BIR2 domain of XIAP (P98170 124-240 with tags or gaps C202A/C213G limits assumed): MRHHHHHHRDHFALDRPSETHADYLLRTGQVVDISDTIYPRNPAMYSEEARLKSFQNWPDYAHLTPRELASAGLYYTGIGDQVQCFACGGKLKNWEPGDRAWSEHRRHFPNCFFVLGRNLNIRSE
For the compound `CN[C@@H](C)C(=O)N[C@H]1CN(C(=O)c2ccc(C(O)C(F)(F)F)cc2)c2ccccc2N(Cc2c(OC)ccc3cc(Br)ccc23)C1=O` (mixture of isomers) [Example 32, (S)—N—{(S)-1-(6-Bromo-2-methoxy-naphthalen-1-ylmethyl)-2-oxo-5-[4-(2,2,2-trifluoro-1-hydroxy-ethyl)-benzoyl]-2,3,4,5-tetrahydro-1H-benzo[b][1,4]diazepin-3-yl}-2-methylamino-propionamide hydrochloride, mixture of diastereomers], the IC50 is 25 nM.
Take `CN[C@@H](C)C(=O)N[C@H]1CN(C(=O)c2ccccc2[C@H](C)O)c2ccccc2N(Cc2c(C)ccc3ccccc23)C1=O` (stereo in doubt) [Example 153, (25)-N-[(3S)-1-[2-[(1S)-1-hydroxyethyl]benzoyl]-5-[(2-methylnaphthalen-l-yl)methyl]-4-oxo-2,3-dihydro-1,5-benzodiazepin-3-yl]-2-(methylamino)propanamide;(2S)-N-[(3S)-1-[2-[(1R)-1-hydroxyethyl]benzoyl]-5-[(2-methylnaphthalen-1-yl)methyl]-4-oxo-2,3-dihydro-1,5-benzodiazepin-3-yl]-2-(methylamino)propanamide]: the 50% inhibitory concentration (IC50) was 52.4 nM.
The same measure for `CN[C@@H](C)C(=O)N[C@H]1CN(CCc2ccccc2)c2ccccc2N(Cc2cccc3ccccc23)C1=O` [Example 7, (S)-2-Methylamino-N—((S)-1-naphthalen-1-ylmethyl-2-oxo-5-phenethyl-2,3,4,5-tetrahydro-1H-benzo[b][1,4]diazepin-3-yl)-propionamide trifluoroacetate]: 1550 nM.
The same measure for `CN[C@@H](C)C(=O)N[C@H]1CN(C(=O)COCCOCCOC)c2ccccc2N(Cc2c(C)ccc3ccccc23)C1=O` [Example 13, (S)—N—[(S)-5-{2-[2-(2-Methoxy-ethoxy)-ethoxy]-acetyl}-1-(2-methyl-naphthalen-1-ylmethyl)-2-oxo-2,3,4,5-tetrahydro-1H-benzo[b][1,4]diazepin-3-yl]-2-methylamino-propionamide hydrochloride]: 234 nM; for `CN[C@@H](C)C(=O)N[C@H]1CN(C(=O)CC2CCCCC2)c2ccccc2N(Cc2c(OC)ccc3cc(Br)ccc23)C1=O` [Example 13i]: 78 nM.
As to `CN[C@@H](C)C(=O)N[C@H]1CN(C(=O)c2ccc(C(=O)C(C)(C)C)cc2)c2ccccc2N(Cc2c(OC)ccc3cc(Br)ccc23)C1=O` [Example 13j], the IC50 is 37 nM.
For `CN[C@@H](C)C(=O)N[C@H]1CN(C(=O)c2cccc(C(C)=O)c2)c2ccccc2N(Cc2c(OC)ccc3cc(Br)ccc23)C1=O` [Example 13l], the half-inhibitory concentration (IC50) was 67 nM.
Take `CN[C@@H](C)C(=O)N[C@H]1CN(C(=O)Cc2ccc(C(C)=O)cc2)c2ccccc2N(Cc2c(OC)ccc3cc(Br)ccc23)C1=O` [Example 13o]: the half-maximal inhibitory concentration (IC50) is 28 nM.
Take `CN[C@@H](C)C(=O)N[C@H]1CN(C(=O)CC23CC4CC(CC(C4)C2)C3)c2ccccc2N(Cc2c(OC)ccc3cc(Br)ccc23)C1=O` [Example 13q]: the half-maximal inhibitory concentration (IC50) came out at 92 nM.
Take `CN[C@@H](C)C(=O)N[C@H]1CN(C(=O)CCCC(C)=O)c2ccccc2N(Cc2c(OC)ccc3cc(Br)ccc23)C1=O` [Example 27, (S)—N—((S)-1-((6-bromo-2-methoxynaphthalen-1-yl)methyl)-2-oxo-5-(5-oxohexanoyl)-2,3,4,5-tetrahydro-1H-benzo[b][1,4]diazepin-3-yl)-2-(methylamino)propanamide hydrochloride]: the IC50 amounted to 33 nM.
In the case of `CN[C@@H](C)C(=O)N[C@H]1CN(C(=O)c2ccc(C(=O)OC)cc2)c2ccccc2N(Cc2c(OC)ccc3cc(Br)ccc23)C1=O` [Example 28, 4-[(S)-5-(6-Bromo-2-methoxy-naphthalen-1-ylmethyl)-3-((S)-2-methylamino-propionylamino)-4-oxo-2,3,4,5-tetrahydro-benzo[b][1,4]diazepine-1-carbonyl]-benzoic acid methyl ester hydrochloride] it was 39 nM.

A word on the IC50: it is the concentration at which inhibition is half-maximal.
